The values that follow come from article PMC6264549, “Synthesis and Biological Evaluation of 3-Substituted-indolin-2-one Derivatives Containing Chloropyrrole Moieties” (Molecules, 2011).

In general, IC50 refers to the concentration at which inhibition is half-maximal. Usually melting point stands for the temperature of the solid-liquid transition.

Data set [1] deals with non-small cell lung cancer (A549). Put plainly: MTT cell growth inhibition assay, A549. Format: cell-based. As to conditions: Homo sapiens, 48 h, A549 cells, two days, read-out: IC50 ± SD A549. The protocol:
(§1) The antitumor activities of 14a-r were evaluated in vitro on four tumor cell lines, including non-small cell lung cancer (A549), oral epithelial (KB), melanoma (K111) and large cell lung cancer cell lines (NCI-H460) by the MTT assay, and the results are summarized in Table 1.
(§2) Non-small cell lung cancer (A549), oral epithelial (KB), large cell lung cancer (NCI-H460) and melanoma cell lines (K111) were cultured in Dulbecco’s modified Eagle medium (GIBCO) containing 10% (v/v) inactivated newborn calf serum (Boren Bio-Pharmaceutical Co., Ltd.: Guangzhou, China), […] L-glutamine (SANGON), […] penicillin, 100 µg/mL streptomycin. Cells were grown in a 5% CO2 incubator at 37 °C.
(§3) The antitumor activities were determined by the MTT assay. Cells (2 × 10^3 cells/well) were seeded in 96-well plates. After incubation overnight, each compound, which was dissolved in dimethylsulfoxide (DMSO) and diluted with phosphate buffer solution (PBS), was added to each well and the cells were cultured for another two days at 37 °C. 20 μL (5 mg/mL) MTT solution was added to per well and the culture continued for another 3–4 h. The medium was removed and 100 μL DMSO was added to dissolve formazan crystals. Absorbance was measured at 492 nm using an ELISA reader (Thermo). The antitumor activities were expressed as IC50.

The subject of another data set is oral epithelial (KB). Description: MTT cell growth inhibition assay, KB. Format: cell-based. To be noted: Homo sapiens, 48 h, KB cells, two days. The procedure:
as §1, §2, §3

The test system of a further data set is melanoma (K111). Description: MTT cell growth inhibition assay, K111. Format: cell-based. As to conditions: 48 h, K111 cells, two days, read-out: IC50 ± SD K111. The protocol:
as §1, §2, §3

Data set [2] has as its system large cell lung cancer cell lines (NCI-H460). Description: MTT cell growth inhibition assay, NCI-H460. Format: cell-based. As to conditions: Homo sapiens, 48 h, NCI-H460 cells, two days, read-out: IC50 ± SD NCI-H460. The procedure: as §1, §2, §3
A further data set deals with VEGFR2 tyrosine kinase (Homo sapiens, UniProt P35968). Description: VEGFR2 inhibition assay (ELISA). Format: biochemical. As to conditions: 5.0 µM ATP, Poly (Glu, Tyr)4:1 substrate, read-out: IC50 ± SD VEGFR2. The protocol:
Seven compounds in the 14a–r series with low IC50 values on the tumor cell lines were evaluated for their inhibition of VEGFR2 using an enzyme-linked immunosorbent assay (ELISA), and the data are summarized in Table 2.
The VEGFR2 inhibition assay was performed by enzyme-linked immunosorbent assay (ELISA) in 96-well plates pre-coated with 2.5 µg/well Poly (Glu, Tyr)4:1 as a substrate. Each well was treated with 90 µL of 5.0 µM ATP (Amresco) solution and 10 µL of one of the seven compounds at varying concentrations, which were diluted in reaction buffer (50 mM HEPES pH 7.4, 20 mM MgCl2, 0.1 mM Na3VO4, 1 mM DTT). […] The reaction was initiated by adding 1 µL/well of VEGFR2 tyrosine kinase. After incubation for 1 h at 37 °C, the plates were washed three times with phosphate buffered saline containing 0.1% Tween-20 (T-PBS). Next, anti-phosphotyrosine (PY99; 1:1,000 dilution, 100 μL/well) antibody was added. After 1 h incubation at room temperature, the plates were washed three times, and goat anti-mouse IgG horseradish peroxidase (100 μL/well of 1:2,000 dilution) diluted in T-PBS was added. The plates were reincubated at room temperature for 1 h, and washed as before. Finally, color development solution (0.03% H2O2 and 2 mg/mL o-phenylenediamine in 0.1 M citrate buffer, pH 5.5, 100 µL/well) was added and the plates were incubated at room temperature until color emerged. The reaction was terminated by the addition of 2 M H2SO4 (50 µL/well), and A492 was measured using a tunable wavelength microplate reader (Molecular Devices SPECTRAMAX190). The inhibition rate was calculated using the equation: [1 − (A492/A492 control)] × 100%.
(An ELISA detects its analyte on a solid surface through an enzyme-linked reagent.)

The next data set addresses hERG potassium currents (Homo sapiens, UniProt Q12809). Description: Inhibition of hERG potassium currents in HEK239 cells (cardiotoxicity).
The conditions of data set [3]: sunitinib-treated patients, pivotal phase III metastatic renal cell carcinoma trial; cited from earlier work.

VEGFR2 tyrosine kinase, sequence (P35968 20-1356): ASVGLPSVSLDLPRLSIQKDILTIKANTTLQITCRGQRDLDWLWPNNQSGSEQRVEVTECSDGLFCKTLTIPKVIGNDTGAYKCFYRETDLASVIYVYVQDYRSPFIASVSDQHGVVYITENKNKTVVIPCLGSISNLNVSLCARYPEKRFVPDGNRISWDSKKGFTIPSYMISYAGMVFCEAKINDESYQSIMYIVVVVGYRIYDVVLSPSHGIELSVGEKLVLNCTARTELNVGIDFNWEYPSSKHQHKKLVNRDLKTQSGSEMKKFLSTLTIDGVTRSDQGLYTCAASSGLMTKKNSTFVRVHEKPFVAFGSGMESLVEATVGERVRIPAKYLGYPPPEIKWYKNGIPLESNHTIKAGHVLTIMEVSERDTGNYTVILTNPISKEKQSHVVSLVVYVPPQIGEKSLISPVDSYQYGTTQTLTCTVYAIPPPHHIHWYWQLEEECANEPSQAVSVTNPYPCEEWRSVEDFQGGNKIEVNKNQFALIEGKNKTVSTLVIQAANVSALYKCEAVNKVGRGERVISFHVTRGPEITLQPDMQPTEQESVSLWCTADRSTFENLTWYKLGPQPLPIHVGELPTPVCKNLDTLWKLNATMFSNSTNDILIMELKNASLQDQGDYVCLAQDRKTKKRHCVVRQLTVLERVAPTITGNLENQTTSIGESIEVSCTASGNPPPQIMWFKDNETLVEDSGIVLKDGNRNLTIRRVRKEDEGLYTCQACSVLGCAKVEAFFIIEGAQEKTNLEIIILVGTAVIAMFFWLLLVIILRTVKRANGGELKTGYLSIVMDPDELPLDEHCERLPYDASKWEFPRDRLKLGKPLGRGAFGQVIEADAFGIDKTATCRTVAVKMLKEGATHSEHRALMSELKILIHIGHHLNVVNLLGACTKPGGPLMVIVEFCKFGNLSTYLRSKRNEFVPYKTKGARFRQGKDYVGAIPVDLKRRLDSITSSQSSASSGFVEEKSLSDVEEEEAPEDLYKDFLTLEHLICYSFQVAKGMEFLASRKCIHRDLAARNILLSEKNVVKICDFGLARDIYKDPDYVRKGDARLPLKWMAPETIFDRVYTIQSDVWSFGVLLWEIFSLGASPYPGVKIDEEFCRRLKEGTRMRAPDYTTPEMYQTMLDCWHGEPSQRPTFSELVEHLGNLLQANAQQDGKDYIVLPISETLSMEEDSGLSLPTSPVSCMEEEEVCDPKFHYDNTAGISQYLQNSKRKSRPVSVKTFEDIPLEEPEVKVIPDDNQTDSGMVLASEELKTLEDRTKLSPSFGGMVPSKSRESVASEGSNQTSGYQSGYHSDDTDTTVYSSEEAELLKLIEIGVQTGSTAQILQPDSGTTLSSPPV
hERG potassium currents, sequence (Q12809 whole entry): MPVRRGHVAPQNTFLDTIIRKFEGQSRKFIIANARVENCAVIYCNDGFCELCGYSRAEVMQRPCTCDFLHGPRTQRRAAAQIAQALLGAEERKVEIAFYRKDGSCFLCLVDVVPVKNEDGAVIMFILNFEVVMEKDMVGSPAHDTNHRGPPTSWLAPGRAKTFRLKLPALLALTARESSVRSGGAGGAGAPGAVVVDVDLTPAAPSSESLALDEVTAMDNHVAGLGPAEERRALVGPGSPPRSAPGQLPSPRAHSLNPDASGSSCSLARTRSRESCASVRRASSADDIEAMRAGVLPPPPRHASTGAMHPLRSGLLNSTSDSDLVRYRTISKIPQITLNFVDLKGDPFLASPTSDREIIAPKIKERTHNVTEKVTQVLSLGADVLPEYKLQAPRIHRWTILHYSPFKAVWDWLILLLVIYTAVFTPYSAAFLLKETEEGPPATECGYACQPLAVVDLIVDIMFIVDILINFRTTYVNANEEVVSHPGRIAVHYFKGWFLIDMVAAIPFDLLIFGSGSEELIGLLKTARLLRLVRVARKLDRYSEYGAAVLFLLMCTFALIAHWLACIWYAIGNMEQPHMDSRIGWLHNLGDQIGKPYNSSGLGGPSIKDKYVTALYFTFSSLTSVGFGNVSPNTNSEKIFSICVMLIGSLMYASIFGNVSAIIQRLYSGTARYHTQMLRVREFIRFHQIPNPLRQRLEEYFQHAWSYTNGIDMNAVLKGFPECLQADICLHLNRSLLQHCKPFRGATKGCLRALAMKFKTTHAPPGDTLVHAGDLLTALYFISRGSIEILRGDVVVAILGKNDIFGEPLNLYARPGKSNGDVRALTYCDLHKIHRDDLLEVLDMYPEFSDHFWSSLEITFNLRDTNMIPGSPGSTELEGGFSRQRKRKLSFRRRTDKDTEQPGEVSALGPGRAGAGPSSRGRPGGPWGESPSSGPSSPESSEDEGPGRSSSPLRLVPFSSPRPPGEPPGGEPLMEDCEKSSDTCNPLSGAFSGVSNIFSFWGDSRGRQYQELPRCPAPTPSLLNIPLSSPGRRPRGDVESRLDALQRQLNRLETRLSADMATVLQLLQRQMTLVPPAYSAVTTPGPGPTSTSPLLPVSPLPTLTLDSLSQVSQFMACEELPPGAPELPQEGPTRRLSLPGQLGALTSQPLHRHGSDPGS

Consider `CCNCCNC(=O)c1c(C)[nH]c(/C=C2\C(=O)Nc3ccc(F)cc32)c1Cl` [Compound 14g, (Z)-4-Chloro-N-(2-(ethylamino)ethyl)-5-((5-fluoro-2-oxoindolin-3-ylidene)methyl)-2-methyl-1H-pyrrole-3-carboxamide], for which the melting point lay in the range of 211 to 211.8 °C. Besides, the IC50 in data set [1] came out at 1030 ± 90 nM. The same compound returned an IC50 in the data set on oral epithelial (KB) of 670 ± 80 nM. For the same compound, the IC50 in the data set with melanoma (K111) came out at 1190 ± 210 nM. The IC50 in data set [2] came to 1410 ± 90 nM. The IC50 on VEGFR2 tyrosine kinase came to 5 ± 1.1 nM. The midpoint of inhibition at hERG potassium currents, the IC50, lay at 430 nM.
As to `CCN(CC)CCNC(=O)c1c(C)[nH]c(/C=C2\C(=O)Nc3ccc(F)cc32)c1Cl` [Compound 14h, (Z)-4-Chloro-N-(2-(diethylamino)ethyl)-5-((5-fluoro-2-oxoindolin-3-ylidene)methyl)-2-methyl-1H-pyrrole-3-carboxamide], the melting point lay within 245.6 to 246.9 °C. The IC50 in data set [1] worked out at 1870 ± 260 nM. It took 1250 ± 100 nM to reach half-maximal inhibition in the data set on oral epithelial (KB) (IC50). Also, in the data set with melanoma (K111), the IC50 amounted to 1790 ± 120 nM. The IC50 in data set [2] was determined as 32100 ± 3830 nM. Also, the IC50 on VEGFR2 tyrosine kinase came to 6.8 ± 0.8 nM. Also, it took 452 nM to reach half-maximal inhibition against hERG potassium currents (IC50).
Turning to `CCNCCNC(=O)c1c(Cl)[nH]c(/C=C2\C(=O)Nc3ccc(F)cc32)c1CC` [Compound 14r, (Z)-2-Chloro-4-ethyl-N-(2-(ethylamino)ethyl)-5-((5-fluoro-2-oxoindolin-3-ylidene)methyl)-1H-pyrrole-3-carboxamide], the melting point was 232 to 233.1 °C. The IC50 in data set [1] is 1490 ± 110 nM. Besides, in the data set with oral epithelial (KB), half-maximal inhibition (IC50) was put at 1430 ± 210 nM. For the same compound, the IC50 in the data set on melanoma (K111) is 3720 ± 460 nM. For the same compound, the concentration for half-maximal inhibition (IC50) in data set [2] stood at 1220 ± 100 nM. Moreover, the IC50 at VEGFR2 tyrosine kinase came to 8.7 ± 1.3 nM.
Consider `CCN(CC)CCNC(=O)c1c(C)[nH]c(/C=C2\C(=O)Nc3ccc(F)cc32)c1C` [Sunitinib, sunitinib, reference compound], for which the IC50 in data set [1] was 2930 ± 250 nM; in the data set with oral epithelial (KB) it was 2600 ± 180 nM; with melanoma (K111), 3830 ± 430 nM; in data set [2], 4790 ± 620 nM. In data set [3], the “patients who experienced a decline in LVEF to below normal” value is 21%.
